Results on one compound are retold here after paper PMC8241751, “Influence of the Dabcyl group on the cellular uptake of cationic peptides: short oligoarginines as efficient cell-penetrating peptides” (Amino Acids, 2021).

The structures appear in SMILES notation. Where a SMILES comes first, the peptide text is derived from it. The star is where a group is joined. 5FAM = O=C1OC2(c3ccc(O)cc3Oc3cc(O)ccc32)c2ccc(C(=O)*)cc21; X1 = CN(C)c1ccc(/N=N/c2ccc(C(=O)*)cc2)cc1

Data set [1] relates to HL-60 cells. Put plainly: Cellular uptake by flow cytometry on HL-60 cells. It counts as cell-based, human. The note with it: 90 min, 37 °C, serum-free. As to the method: HL-60 cells were cultured as described above. To study the cellular uptake of fluorescent labelled compounds, 10^5 cells per well were plated on 24-well plates. After 24 h incubation at 37 °C, cells were treated with the compounds solved in the corresponding serum-free media for 90 min. The cellular uptake was analysed at 1, 5 and 10 µM concentrations. Cells treated with serum-free media for 90 min were used as control. After incubation, treatment solutions were removed and the cells were treated with 100 μL trypsin for 2 min to remove the membrane proteins in order to eliminate non-specific binding of conjugates. The effect of trypsin was terminated by 900 μL HPMI (glucose, NaHCO3, NaCl, HEPES, KCl, MgCl2, CaCl2, Na2HPO4·2H2O) (Kapus et al. [1994]) containing 10% foetal calf serum, and the cells were transferred from the plate to FACS-tubes. Cells were centrifuged at 216 g at 4 °C for 5 min and the supernatant was removed. After this procedure, cells were resuspended in 500 µL HPMI, and the intracellular fluorescence intensity of HL-60 cells was monitored (on channel FITC LP505; emission at λ = 505 nm; LP 505, BP 530/30) by flow cytometry (BD LSR II, BD Bioscience, San Jose, CA, equipped with 488 nm; Coherent Sapphire, 22 mW laser.) which is proportional to the cellular uptake. Data were analysed with FACSDiVa 5.0 software.
For orientation: In flow cytometry, cells or beads pass a laser one at a time.

The test system of data set [2] is HL-60 cells. Nature of the data set: In vitro cytostatic activity (MTT) on HL-60. It is filed as cell-based, human. The note with it: HL-60; 3 h incubation, then 3 days in serum-containing medium; MTT assay; ± sd, three independent experiments with four parallels. As to the method:
The cells (HL-60 or MCF-7) were grown to confluency and were plated into 96-well plate with initial cell number of 5 × 10^3 per well. After 24 h incubation at 37 °C, cells were treated with the compounds at 1.28 × 10^–3–100 μM concentration range for 3 h in 200 μL final volume. Control cells were treated with serum free medium at 37 °C for 3 h. After incubation the cells were washed twice with serum free medium. For the analysis of the in vitro cytostatic effect, cells were cultured for an additional 72 h in serum containing medium. On day 4, MTT assay was carried out to determine the IC50 values of the compounds. Briefly, 45 μL of MTT solution was added to each well (2 mg/mL, dissolved in serum-free medium). Following the 4 h incubation, plates were centrifuged at 900 g for 5 min, and the supernatant was removed. The precipitated purple crystals were dissolved in 100 μL DMSO and the absorbance was determined at λ = 540 nm and λ = 620 nm using ELISA plate reader (iEMSReader, Labsystems, Finland). The percent of cytostasis was calculated using the following equation: Cytostatic effect (%) = [1 − (ODtreated/ODcontrol)] × 100; where ODtreated and ODcontrol correspond to the optical densities of the treated and the untreated control cells, respectively. In each case three independent experiments were carried out with four parallel measurements. […] The curves were defined using MicrocalTM Origin (version 9.2) software: cytostasis was plotted as a function of concentration, fitted to a sigmoidal curve, and based on this curve, the IC50 value was determined.

The term IC50 denotes the concentration that inhibits the measured activity by half. Lower therefore signals higher potency.

On to `CN(C)c1ccc(/N=N/c2ccc(C(=O)N[C@@H](CCCNC(=N)N)C(=O)N[C@@H](CCCNC(=N)N)C(=O)N[C@@H](CCCNC(=N)N)C(=O)N[C@@H](CCCNC(=N)N)C(=O)N[C@@H](CCCNC(=N)N)C(=O)N[C@@H](CCCNC(=N)N)C(=O)N[C@@H](CCCCNC(=O)c3ccc4c(c3)C(=O)OC43c4ccc(O)cc4Oc4cc(O)ccc43)C(N)=O)cc2)cc1` [Dabcyl–Arg6–Lys(Cf)–NH2] (X1-RRRRRRK(5FAM)-NH2), for which the “Cellular uptake, times higher than that of octaarginine” value is reported as 4 times in the data set on HL-60 cells [1] (HL-60, 5 μM) and 1.5 times in the data set on HL-60 cells [1] (HL-60, 10 μM). This compound also registered a 50% inhibitory concentration (IC50) in the data set on HL-60 cells [2] of 21.8 ± 8.2 µM.
